Measured values as given in article PMC9575004 (Journal of Molecular Structure, 2022).

Legend:
[1] = target: T1, human recombinant COX-2 (Homo sapiens, UniProt P35354); assay: In vitro COX-2 inhibition, enzyme immunoassay; type: biochemical; conditions: for COX-2 S. I. (in vitro COX-2 selectivity index, COX-1/COX-2): ratio COX-1 IC50/COX-2 IC50
T1 sequence (P35354 18-604): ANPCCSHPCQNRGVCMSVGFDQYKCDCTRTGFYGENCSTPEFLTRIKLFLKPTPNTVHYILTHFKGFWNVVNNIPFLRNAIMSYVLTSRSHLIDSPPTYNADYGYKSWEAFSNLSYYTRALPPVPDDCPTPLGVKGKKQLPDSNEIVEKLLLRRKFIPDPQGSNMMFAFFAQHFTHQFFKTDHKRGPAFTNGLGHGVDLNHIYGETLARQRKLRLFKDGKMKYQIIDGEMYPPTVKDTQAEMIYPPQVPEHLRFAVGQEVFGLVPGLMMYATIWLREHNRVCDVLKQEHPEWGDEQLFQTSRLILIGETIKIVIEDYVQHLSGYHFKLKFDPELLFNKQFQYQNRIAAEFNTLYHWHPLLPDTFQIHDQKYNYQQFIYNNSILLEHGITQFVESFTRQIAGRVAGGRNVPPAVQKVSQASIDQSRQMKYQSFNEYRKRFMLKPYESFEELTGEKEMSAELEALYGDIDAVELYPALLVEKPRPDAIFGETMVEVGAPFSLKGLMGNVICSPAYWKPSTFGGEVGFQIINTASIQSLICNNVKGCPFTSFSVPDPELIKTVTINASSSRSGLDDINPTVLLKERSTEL

[2] = target: T2, ovine COX-1 (Ovis aries, UniProt P05979); assay: In vitro COX-1 inhibition, enzyme immunoassay; type: biochemical
T2 sequence (P05979 25-600): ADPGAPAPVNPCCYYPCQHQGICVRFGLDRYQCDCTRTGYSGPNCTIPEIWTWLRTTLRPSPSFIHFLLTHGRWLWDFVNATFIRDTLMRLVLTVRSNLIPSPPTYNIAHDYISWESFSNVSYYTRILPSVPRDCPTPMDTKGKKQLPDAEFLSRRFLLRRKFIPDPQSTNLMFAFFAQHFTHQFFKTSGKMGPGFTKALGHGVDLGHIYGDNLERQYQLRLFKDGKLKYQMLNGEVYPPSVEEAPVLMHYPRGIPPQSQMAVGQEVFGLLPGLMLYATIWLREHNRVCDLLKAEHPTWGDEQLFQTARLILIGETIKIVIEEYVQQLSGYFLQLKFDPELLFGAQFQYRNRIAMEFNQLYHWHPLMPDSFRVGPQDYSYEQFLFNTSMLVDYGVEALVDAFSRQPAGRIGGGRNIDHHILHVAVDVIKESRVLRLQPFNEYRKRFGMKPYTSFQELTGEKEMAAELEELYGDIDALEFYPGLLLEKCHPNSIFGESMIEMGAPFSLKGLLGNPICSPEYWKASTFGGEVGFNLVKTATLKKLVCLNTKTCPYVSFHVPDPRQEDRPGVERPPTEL

With `CCCCCCCCCCCC1=C(O)C(=O)C=C(O)C1=O` [Compound 1, 2,5-dihydroxy-3-undecyl-1,4-benzoquinone] the IC50 [1] was 2.98 µM, the “COX-2 S. I. (in vitro COX-2 selectivity index, COX-1/COX-2)” value [1] was 2.15 and the IC50 [2] was 6.42 µM.

For `CCCCCCCCCCCC1=C(O)C(=O)C=C(NC)C1=O` [Compound 2, 2-Hydroxy-5-(methylamino)-3-undecylcyclohexa-2,5-diene-1,4-dione], the IC50 [1] was 3.1 µM, the “COX-2 S. I. (in vitro COX-2 selectivity index, COX-1/COX-2)” value [1] was 2.11 and the IC50 [2] was 6.54 µM.

With `CCCCCCCCCCCC1=C(O)C(=O)C=C(NCCN(C)C)C1=O` [Compound 3, 5-(2-(Dimethylamino)ethylamino)-2-hydroxy-3-undecylcyclohexa-2,5-diene-1,4-dione] the IC50 [1] was 1.65 µM, the “COX-2 S. I. (in vitro COX-2 selectivity index, COX-1/COX-2)” value [1] was 2.17 and the IC50 [2] was 3.58 µM.

For `CCCCCCCCCCCC1=C(O)C(=N/C)/C=C(O)C/1=N/C` [Compound 5, (3E, 6E)-3,6-bis(Methylimino)-2-undecylcyclohexa-1,4-diene-1,4-diol], the IC50 [1] was 2.56 µM, the “COX-2 S. I. (in vitro COX-2 selectivity index, COX-1/COX-2)” value [1] was 2.98 and the IC50 [2] was 7.65 µM.

With `CCCCCCCCCCCC1=C(O)C(=N/CC)/C=C(O)C/1=N/CC` [Compound 6, (3E, 6E)-3,6-bis(Ethylimino)-2-undecylcyclohexa-1,4-diene-1,4-diol] the IC50 [1] was 2.15 µM, the “COX-2 S. I. (in vitro COX-2 selectivity index, COX-1/COX-2)” value [1] was 3.18 and the IC50 [2] was 6.85 µM.

In the case of `CCCCCCCCCCCc1c2oc3cccnc3nc-2cc(O)c1=O` [Compound 7, 8-hydroxy-6-undecyl-7H-benzo[b]pyrido[2,3-e][1,4]oxazin-7-one], the IC50 [1] is reported as 1.56 µM, the “COX-2 S. I. (in vitro COX-2 selectivity index, COX-1/COX-2)” value [1] is reported as 2.04 and the IC50 [2] is reported as 3.19 µM.

With `CCCCCCCCCCCC1=C(OC(C)=O)C(=O)C=C(OC(C)=O)C1=O` [Compound 8, 3,6-Dioxo-2-undecylcyclohexa-1,4-diene-1,4-diyl diacetate] the IC50 [1] was 1.23 µM, the “COX-2 S. I. (in vitro COX-2 selectivity index, COX-1/COX-2)” value [1] was 1.83 and the IC50 [2] was 2.25 µM.
